From paper PMC6278576, “Analogues of Muraymycin Nucleoside Antibiotics with Epimeric Uridine-Derived Core Structures” (Molecules, 2018)
Read-outs that look alike come from different tables or passages of the source.

What was measured:
[1] = tested on: E. coli; experiment: Antibacterial activity (MIC) against E. coli; assay type: cell-based; conditions: Escherichia coli, not active
Method: Muraymycin analogues 10–17 were also studied for their antibacterial activities against E. coli, but were not active (MIC > 50 μg/mL).

[2] = molecular target: T1, MraY from S. aureus (Staphylococcus aureus, UniProt Q2FZ93); experiment: Fluorescence-based in vitro MraY inhibition assay (dansylated Park's nucleotide, crude membrane preparation); assay type: biochemical; conditions: for IC50: crude membrane preparation of MraY heterologously overexpressed in E. coli, triplicates, mean ± standard deviation, read-out: IC50, in vitro inhibitory activity against MraY from S. aureus; for fold weaker MraY inhibition than (6′S)-counterpart: (6′R)-derivatives 12 and 13 vs. 10 and 11, respectively
T1 construct: made in house; host or cells: E. coli Lemo21
T1 sequence (Q2FZ93 whole entry): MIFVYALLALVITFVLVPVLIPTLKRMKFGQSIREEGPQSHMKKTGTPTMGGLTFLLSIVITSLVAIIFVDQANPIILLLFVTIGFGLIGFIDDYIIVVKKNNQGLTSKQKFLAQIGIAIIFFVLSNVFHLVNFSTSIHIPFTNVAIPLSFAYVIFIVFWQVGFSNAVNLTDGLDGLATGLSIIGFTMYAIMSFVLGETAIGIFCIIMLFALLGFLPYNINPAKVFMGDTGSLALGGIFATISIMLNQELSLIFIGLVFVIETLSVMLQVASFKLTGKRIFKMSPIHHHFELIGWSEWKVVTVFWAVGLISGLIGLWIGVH
Method: Target compounds 10–17 were tested in vitro for their inhibitory potency towards the bacterial target enzyme MraY. Therefore, a previously reported fluorescence-based assay was employed, using dansylated Park’s nucleotide and MraY from S. aureus (recombinantly overexpressed in E. coli).
The overexpression of MraY was performed as described before. A plasmid containing the mraY gene was transformed into E. coli Lemo21 cells, which were plated on lysogeny broth (LB) agar containing kanamycin (50 μg/mL) and chloramphenicol (30 μg/mL). A single colony was picked to induce an overnight culture (10 mL) of LB media containing kanamycin (50 μg/mL) and chloramphenicol (30 μg/mL), which was incubated at 37 °C and 180 rpm for 16 h. A culture of LB media (500 mL) containing kanamycin (50 μg/mL), chloramphenicol (30 μg/mL), and L-rhamnose (1 mM) was inoculated with the overnight culture (500 μL) and then grown at 37 °C and 180 rpm to OD600 0.6. Subsequently, MraY expression was induced with IPTG (1 mM) and the culture was incubated at 37 °C and 180 rpm for 4 h. Cells were then centrifuged and the pellet was resuspended in buffer A (50 mM Tris-HCl buffer pH 7.5, 1 mM MgCl2, 2 mM β-mercaptoethanol, 15 mL overall). Egg white lysozyme (spatula tip), DNAse I (spatula tip), and cOmplete^TM EDTA-free protease inhibitor cocktail (one tablet) were added. Cells were lysed using sonication and then incubated at 4 °C for 30 min. The lysate was centrifuged and the supernatant was centrifuged again. The resultant pellet was resuspended in buffer A (1.7 mL), flash frozen in liquid nitrogen and stored at −80 °C (aliquots of 20 μL). This MraY-containing crude membrane preparation (overall protein concentration ~20.5 mg/mL as determined by OD280) was diluted with water (final overall protein concentration 1 mg/mL) and then directly used for MraY activity assays without further purification.
The assay was performed as described before. The crude membrane preparation of MraY from S. aureus (1 μL, vide supra) was added to a mixture of undecaprenyl phosphate (50 μM), dansylated Park′s nucleotide (7.5 μM), and the tested compound (at varying concentrations) in buffer (100 mM Tris-HCl buffer pH 7.5, 200 mM KCl, 10 mM MgCl2, 0.1% Triton X-100, 20 μL overall). Fluorescence of the assay mixtures over time was monitored at λex = 355 nm and λem = 520 nm (plate reader, 384-well plate format). MraY activity at a certain inhibitor concentration was determined using linear regression from 0 to 2 min. This measure of activity was plotted against logarithmic inhibitor concentrations and fitted using a sigmoidal fit. This procedure furnished IC50 values with standard deviations.

[3] = molecular target: T1, MraY from S. aureus; design: method as in PMID 29438582; conditions: reference compound in Table 1; same value as given in b6; read-out: IC50, in vitro inhibitory activity against MraY from S. aureus; cited from earlier work

Compound: CC(C)C[C@@H](NC(=O)[C@H](CCCCN)NC(=O)N[C@H](C(=O)O)C(C)C)C(=O)NCCCN[C@@H](C[C@H]1O[C@@H](n2ccc(=O)[nH]c2=O)[C@H](O)[C@@H]1O)C(=O)O [Compound 11, 5′-deoxy-D-Leu muraymycin analogue]
- MIC [1]: > 50 mg/L
- IC50 [2]: 2 ± 0.6 µM

Compound: CC(C)C[C@@H](NC(=O)[C@H](CCCCN)NC(=O)N[C@H](C(=O)O)C(C)C)C(=O)NCCCN[C@H](C[C@H]1O[C@@H](n2ccc(=O)[nH]c2=O)[C@H](O)[C@@H]1O)C(=O)O [Compound 13, 5′-deoxy-6′-epi-D-Leu muraymycin analogue]
- MIC [1]: > 50 mg/L
- fold weaker MraY inhibition than (6′S)-counterpart [2]: 12 fold
- IC50 [2]: 24 ± 9 µM

Compound: CC(C)C[C@H](NC(=O)[C@H](CCCCN)NC(=O)N[C@H](C(=O)O)C(C)C)C(=O)NCCCN[C@@H](C[C@H]1O[C@@H](n2ccc(=O)[nH]c2=O)[C@H](O)[C@@H]1O)C(=O)O [Compound 10, 5′-deoxy-L-Leu muraymycin analogue]
- MIC [1]: > 50 mg/L
- fold loss in inhibitory potency (MraY) vs. 9 ([2]; compounds 10 vs. 9, epicapreomycidine replaced by L-lysine, nonhydroxylated L-leucine): ~ 26 fold
- IC50 [2]: 2.5 ± 0.6 µM

Compound: CC(C)C[C@H](NC(=O)[C@H](CCCCN)NC(=O)N[C@H](C(=O)O)C(C)C)C(=O)NCCCN[C@H](C[C@H]1O[C@@H](n2ccc(=O)[nH]c2=O)[C@H](O)[C@@H]1O)C(=O)O [Compound 12, 5′-deoxy-6′-epi-L-Leu muraymycin analogue]
- MIC [1]: > 50 mg/L
- fold weaker MraY inhibition than (6′S)-counterpart [2]: 15 fold
- IC50 [2]: 38 ± 6 µM

Compound: CC(C)[C@H](NC(=O)N[C@H](C(=O)N[C@H](C(=O)NCCCN[C@@H](C[C@H]1O[C@@H](n2ccc(=O)[nH]c2=O)[C@H](O)[C@@H]1O)C(=O)O)[C@@H](O)C(C)C)[C@@H]1CCNC(=N)N1)C(=O)O [Compound 9]
- IC50 [3]: 0.095 ± 0.019 µM

Compound: CC(C)C[C@H](NC(=O)[C@H](CCCCN)NC(=O)N[C@H](C(=O)O)C(C)C)C(=O)NCCCN[C@@H](C(=O)O)[C@H](O)[C@H]1O[C@@H](n2ccc(=O)[nH]c2=O)[C@H](O)[C@@H]1O [Compound 14, 6′-epi-L-Leu muraymycin analogue]
- MIC [1]: > 50 mg/L
- IC50 [2]: 10 ± 4 µM

Compound: CC(C)C[C@@H](NC(=O)[C@H](CCCCN)NC(=O)N[C@H](C(=O)O)C(C)C)C(=O)NCCCN[C@H](C(=O)O)[C@@H](O)[C@H]1O[C@@H](n2ccc(=O)[nH]c2=O)[C@H](O)[C@@H]1O [Compound 17, 5′-epi-D-Leu muraymycin analogue]
- MIC [1]: > 50 mg/L
- IC50 [2]: 21 ± 4 µM

Compound: CC(C)C[C@H](NC(=O)[C@H](CCCCN)NC(=O)N[C@H](C(=O)O)C(C)C)C(=O)NCCCN[C@H](C(=O)O)[C@@H](O)[C@H]1O[C@@H](n2ccc(=O)[nH]c2=O)[C@H](O)[C@@H]1O [Compound 16, 5′-epi-L-Leu muraymycin analogue]
- MIC [1]: > 50 mg/L
- fold more active (MraY) than D-leucine epimer 17 ([2]; 16 vs. 17): ~ 3 fold
- IC50 [2]: 6.2 ± 2.8 µM

Compound: CC(C)C[C@@H](NC(=O)[C@H](CCCCN)NC(=O)N[C@H](C(=O)O)C(C)C)C(=O)NCCCN[C@@H](C(=O)O)[C@H](O)[C@H]1O[C@@H](n2ccc(=O)[nH]c2=O)[C@H](O)[C@@H]1O [Compound 15, 6′-epi-D-Leu muraymycin analogue]
- MIC [1]: > 50 mg/L
- IC50 [2]: 10 ± 2 µM
